From patent US20260001853A1, “ASCORBIC ACID DERIVATIVE OR SALT THEREOF, AND COSMETIC THEREOF” (SEIWA KASEI COMPANY, LIMITED, priority 2022, published 2026) come the findings set out here.

Series [1] in a line: Stability test (residual rate by HPLC, odor, coloring). Type of series: physicochemical. The following applies: 1% aqueous solution; for Coloring / Odor: total score of 10 panelists. The procedure: With a dilute potassium hydroxide aqueous solution, 1% aqueous solution of each test sample was adjusted to pH 6, placed in a 50 mL screw tube, sealed, […], and then subjected to HPLC measurement (using a liquid chromatograph manufactured by Shimadzu Corporation) to determine the residual rate from the peak area. The residual rate, odor, and coloring degree were evaluated according to the following methods and criteria.
Residual rate: • ⊚: 90% or more • ◯: 80% or more, less than 90% • Δ: 60% or more, less than 80% • x: 20% or more, less than 60% • xx: Less than 20%
Evaluation was made by 10 panelists according to the following criteria. • 3: Almost odorless • 2: There is a slight strange odor. • 1: A strong odor is detected.
Based on the evaluation results, the following classification was made: • ⊚: Total score of 10 panelists is 25 or more • ◯: Total score of 10 panelists is 20-24 • Δ: Total score of 10 panelists is 16-19 • x: The total score of 10 panelists is 15 or less
Evaluation was made by 10 panelists according to the following criteria. • 3: Almost no change compared to immediately after preparation. • 2: Color changes compared to immediately after preparation. • 1: Strongly colored compared to immediately after preparation.
Based on the evaluation results, the following classification was made: • ◯: Total score of 10 panelists is 25 or more • Δ: Total score of 10 panelists is 16-24 • x: The total score of 10 panelists is 15 or less

Series [2] deals with Normal human dermal fibroblasts. The experiment in a line: Collagen production promoting effect (ELISA of supernatant). Conditions: amount of collagen produced, % with control group taken as 100%; sample at 10 mmol/L or less, 48 hours, N=3. Type of series: cell-based. The procedure: Normal human dermal fibroblasts were prepared in D-MEM containing 5% (v/v) fetal bovine serum to a cell density of […] cells/well, and pre incubated on a 96-well plate for 24 hours. After removing the medium, samples prepared to a predetermined concentration in D-MEM containing 5% (v/v) fetal bovine serum were added to each well and cultured for 48 hours. After completion of the culture, the amount of free collagen in the supernatant was quantified by ELISA method. The measurement was performed with N=3.
The amount of collagen produced when the samples were measured at a concentration of 10 mmol/L or less was compared with that of the control group, and the results (% values when the control group is taken as 100%) are shown in Tables 15 to 17 based on the following criteria. • <100%: ± • 100-120%: + • 120%: ++

Series [3] has as its system B16 melanoma 4A5 cells. The experiment in a line: Melanin production inhibitory effect (theophylline-induced melanin production). Type of series: cell-based, mouse. The following applies: melanin production inhibition rate, sample at a concentration of 10 mM or less, 3 days culture, theophylline 1 mmol/L, N=4. On the procedure:
As a test of the whitening effect, the effect on theophylline-induced melanin production in B16 melanoma 4A5 cells was evaluated for the ascorbic acid derivatives of the present invention according to the following procedure. A similar evaluation was also performed for a known ascorbic acid derivative for comparison. The results are shown in Tables 9 to 11. • (1) B16 mouse melanoma 4A5 cells were seeded in a 48-well plate at a cell density of 8.0×10^3 cells/well. • (2) After culturing for 24 hours in Dulbecco's modified Eagle's medium (manufactured by SIGMA, hereinafter abbreviated as “D-MEM”) containing 10% fetal bovine serum, the medium was replaced with D-MEM containing 10% fetal bovine serum containing theophylline (final concentration 1 mmol/L) and a specified concentration of a sample. • (3) After culturing for 3 days in the presence of the sample, the medium was removed using an aspirator, distilled water was added, and the cells were disrupted by ultrasonication. • (4) The amount of protein was then quantified using a BCA protein assay kit (manufactured by PIERCE), and the amount of melanin produced was measured by an alkali solubilization method. Sodium hydroxide was added to the cell lysate to a final concentration of 1 mol/L, and the solution was dissolved by heating (60° C., 30 minutes), thereafter the absorbance at 405 nm was measured using a microplate reader. The amount of melanin was calculated from a calibration curve prepared using synthetic melanin (SIGMA) as a standard. The amount of melanin per unit protein was calculated by dividing the amount of melanin by the amount of protein. • (5) The melanin production inhibition rate was calculated using the following formula.
[In the formula, A represents the amount of melanin per unit protein (g/g) when the sample was added, B represents the amount of melanin per unit protein (g/g) in the normal group, and C represents the amount of melanin per unit protein (g/g) in the control group.]
The melanin production inhibition rate when the sample was measured at a concentration of 10 mM or less is expressed as follows. The measurement was performed with N=4. • <20%: ± • 20-40%: + • 40-60%: ++ • 60-100%: +++

Series [4] relates to Normal human dermal fibroblasts (NHDF). As to the kind of experiment: Hyaluronic acid production promoting effect (ELISA of supernatant). Type of series: cell-based. The following applies: amount of hyaluronic acid produced, % with control group taken as 100%; sample at 10 mmol/L or less, 48 hours, N=3. On the procedure: Normal human dermal fibroblasts (NHDF) were prepared in D-MEM containing 5% (v/v) fetal bovine serum to a cell density of 2.5× 10^4 cells/well, and then pre-incubated on a 96-well plate for 24 hours. After removing the medium, samples prepared in serum-free D-MEM were added to each well and cultured for 48 hours. After the culture was completed, the amount of hyaluronic acid in the supernatant was quantified by ELISA method. The measurement was performed with N=3.
The amount of hyaluronic acid produced when the samples were measured at a concentration of 10 mmol/L or less was compared with that of the control group, and the results (% values when the control group is taken as 100%) are shown in Tables 18 to 20 based on the following criteria. • <100%: ± • 100-120%: + • 120-150%: ++ • 150%: +++

The mark [5] stands for this setting: pH 6, stored at 50° C., two weeks later.

In the case of `O=C1O[C@H]([C@@H](O)CO)C(O)=C1O` [Ascorbic acid], in series [1] (pH 6, 50° C., initial), the Residual rate entry is “⊚ (⊚: 90% or more)”, the Coloring result is “◯ (◯: Total score of 10 panelists is 25 or more)” and the Odor result is “◯ (◯: Total score of 10 panelists is 20-24)”. Also, in series [1] (setting [5]), the Residual rate result is “Δ (Δ: 60% or more, less than 80%)”; the Coloring entry is listed as “Δ (Δ: Total score of 10 panelists is 16-24)”; the Odor result is recorded as “Δ (Δ: Total score of 10 panelists is 16-19)”.
`CCCCOC1=C(OCC(C)(C)O)C(=O)O[C@@H]1[C@@H](O)CO` [Synthesis Example 4, 2-O-(2-hydroxyisobutyl)-3-O-butylascorbic acid]: the “Collagen production promoting effect” value in series [2] is recorded as “++ (120%: ++)”.
As for `CCCCCCOC1=C(OCC(C)(C)O)C(=O)O[C@@H]1[C@@H](O)CO` [Synthesis Example 5, 2-O-(2-hydroxyisobutyl)-3-O-hexyl ascorbic acid], the “Melanin production inhibition effect” value in series [3] is “+ (20-40%: +)”. In addition, the “Collagen production promoting effect” value in series [2] is listed as “++ (120%: ++)”.
The like results for `CCCCCCCCOC1=C(OCC(C)(C)O)C(=O)O[C@@H]1[C@@H](O)CO` [Synthesis Example 6, 2-O-(2-hydroxyisobutyl)-3-O-octyl ascorbic acid] were, in that order, “+++ (60-100%: +++)” and “++ (120%: ++)”.
Take `CCCCCCCCCCOC1=C(OCC(C)(C)O)C(=O)O[C@@H]1[C@@H](O)CO` [Synthesis Example 7, 2-O-(2-hydroxyisobutyl)-3-O-decyl ascorbic acid]: in series [3], the “Melanin production inhibition effect” value is on record as “+++ (60-100%: +++)”. Moreover, the “Collagen production promoting effect” value in series [2] is given as “++ (120%: ++)”.
With `CCCCCCCCCCCCCCOC1=C(OCC(C)(C)O)C(=O)O[C@@H]1[C@@H](O)CO` [Synthesis Example 9, 2-O-(2-hydroxyisobutyl)-3-O-tetradecyl ascorbic acid], the “Melanin production inhibition effect” value in series [3] was “++ (40-60%: ++)”. Further, in series [2], the “Collagen production promoting effect” value is listed as “++ (120%: ++)”. Further, in series [4], the “Hyaluronic acid production promoting effect” value is recorded as “+++ (150%: +++)”.
With `CCCCCCCCCCCCCCCCOC1=C(OCC(C)(C)O)C(=O)O[C@@H]1[C@@H](O)CO` [Synthesis Example 10, 2-O-(2-hydroxyisobutyl)-3-O-hexadecylascorbic acid], in series [3], the “Melanin production inhibition effect” value is reported as “+ (20-40%: +)”.
Turning to `C=CCOC1=C(OCC(C)(C)O)C(=O)O[C@@H]1[C@@H](O)CO` [Synthesis Example 11, 2-O-(2-hydroxyisobutyl)-3-O-allylascorbic acid], in series [3], the “Melanin production inhibition effect” value is listed as “+++ (60-100%: +++)”. The “Collagen production promoting effect” value in series [2] was “++ (120%: ++)”. Also, the “Hyaluronic acid production promoting effect” value in series [4] was “++ (120-150%: ++)”.
`CC(C)(O)COC1=C(OCc2ccccc2)[C@@H]([C@@H](O)CO)OC1=O` [Synthesis Example 12, 2-O-(2-hydroxyisobutyl)-3-O-benzyl ascorbic acid]: in series [3], the “Melanin production inhibition effect” value is given as “+++ (60-100%: +++)”. Moreover, in series [2], the “Collagen production promoting effect” value is “++ (120%: ++)”. In series [4], the “Hyaluronic acid production promoting effect” value is given as “+++ (150%: +++)”.
Take `CC(C)(O)COC1=C(OCC(O)CO)[C@@H]([C@@H](O)CO)OC1=O` (stereo partly shown) [Synthesis Example 13, 2-O-(2-hydroxyisobutyl)-3-O-glyceryl ascorbic acid]: the “Melanin production inhibition effect” value in series [3] is reported as “++ (40-60%: ++)”. In series [2], the “Collagen production promoting effect” value is on record as “++ (120%: ++)”. The “Hyaluronic acid production promoting effect” value in series [4] is “++ (120-150%: ++)”.
Take `CCCCC(CC)COCC(O)COC1=C(OCC(C)(C)O)C(=O)OC1C(O)CO` (stereo not shown) [Synthesis Example 15, 2-O-(2-hydroxyisobutyl)-3-O-(2-hydroxy-3-O-ethylhexyl) ascorbic acid]: in series [3], the “Melanin production inhibition effect” value is recorded as “+ (20-40%: +)”. For the same molecule, the “Collagen production promoting effect” value in series [2] is given as “++ (120%: ++)”.
As for `CCCCCCCCCCCCOCC(O)COC1=C(OCC(C)(C)O)C(=O)OC1C(O)CO` (stereo not shown) [Synthesis Example 16, 2-O-(2-hydroxyisobutyl)-3-O-(2-hydroxy-3-O-dodecyl) ascorbic acid], in series [3], the “Melanin production inhibition effect” value was “+ (20-40%: +)”. The “Hyaluronic acid production promoting effect” value in series [4] was “++ (120-150%: ++)”.
With `CCCCOC1=C(OCC(C)(C)O)[C@@H]([C@@H](O)CO)OC1=O` [Synthesis Example 19, 2-O-butyl-3-O-(2-hydroxyisobutyl) ascorbic acid], the “Melanin production inhibition effect” value in series [3] is recorded as “+ (20-40%: +)”. In series [2], the “Collagen production promoting effect” value is listed as “++ (120%: ++)”.
Turning to `CCCCCCOC1=C(OCC(C)(C)O)[C@@H]([C@@H](O)CO)OC1=O` [Synthesis Example 20, 2-O-hexyl-3-O-(2-hydroxyisobutyl) ascorbic acid], in series [3], the “Melanin production inhibition effect” value is on record as “++ (40-60%: ++)”. Moreover, the “Collagen production promoting effect” value in series [2] is reported as “++ (120%: ++)”.
Regarding `CCCCCCCCCCOC1=C(OCC(C)(C)O)[C@@H]([C@@H](O)CO)OC1=O` [Synthesis Example 22, 2-O-decyl-3-O-(2-hydroxyisobutyl) ascorbic acid], in series [3], the “Melanin production inhibition effect” value is “++ (40-60%: ++)”.
Turning to `CC(C)(O)COC1=C(OCC(O)CO)C(=O)O[C@@H]1[C@@H](O)CO` (stereo partly shown) [Synthesis Example 28, 2-O-glyceryl-3-O-(2-hydroxyisobutyl) ascorbic acid], the “Melanin production inhibition effect” value in series [3] is “+ (20-40%: +)”. In series [4], the “Hyaluronic acid production promoting effect” value is recorded as “++ (120-150%: ++)”.
For the molecule `CCCCOCC(O)COC1=C(OCC(C)(C)O)C(C(O)CO)OC1=O` (stereo not shown) [Synthesis Example 29, 2-O-(2-hydroxy-3-O-butyl)-3-O-(2-hydroxyisobutyl) ascorbic acid], in series [2], the “Collagen production promoting effect” value is on record as “++ (120%: ++)”.
For the molecule `CCCCC(CC)COCC(O)COC1=C(OCC(C)(C)O)C(C(O)CO)OC1=O` (stereo not shown) [Synthesis Example 30, 2-O-(2-hydroxy-3-O-ethylhexyl)-3-O-(2-hydroxyisobutyl) ascorbic acid], the “Melanin production inhibition effect” value in series [3] is listed as “+ (20-40%: +)”. Also, in series [4], the “Hyaluronic acid production promoting effect” value was “+++ (150%: +++)”.
